# Laboratory results reported in PubChem BioAssay (NCI).
#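 Cultured in 96-well plates, cells were exposed to test compound for 48 hours across five concentrations. TGI: total growth inhibition.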
# Key:
# Test in all cases: DTP human tumour cell line panel, 48 h
# [1] = system: HOP-62 NSCLC
# [2] = system: RXF 393 renal
# [3] = system: LOX IMVI melanoma
# [4] = system: MDA-MB-435
# [5] = system: NCI/ADR-RES ovarian
# [6] = system: HOP-92 NSCLC
# [7] = system: NCI-H226 lung
# [8] = system: SF-295 CNS
# [9] = system: OVCAR-8 ovarian
# [10] = system: SNB-19 CNS
# [11] = system: MOLT-4 leukemia
# [12] = system: EKVX NSCLC
# [13] = system: M14 melanoma
# [14] = system: SF-539 CNS
# [15] = system: PC-3 prostate
# [16] = system: A549 NSCLC
# [17] = system: MDA-MB-231 breast
# [18] = system: OVCAR-4 ovarian
# [19] = system: NCI-H522 lung
# [20] = system: DU-145 prostate
# [21] = system: SNB-75 CNS
# [22] = system: UO-31 renal
# [23] = system: HL-60(TB) leukemia
# [24] = system: SK-MEL-28 melanoma
# [25] = system: NCI-H460 lung
# [26] = system: OVCAR-3 ovarian
# [27] = system: 786-0 renal
# [28] = system: UACC-257 melanoma
# [29] = system: CCRF-CEM leukemia
# [30] = system: COLO 205 colon
# [31] = system: NCI-H23 lung
# [32] = system: T-47D breast
# [33] = system: SR leukemia
# [34] = system: MCF7 breast
# [35] = system: HT29 colon
# [36] = system: SK-MEL-5 melanoma
# [37] = system: CAKI-1 renal
# [38] = system: HS 578T breast
# [39] = system: OVCAR-5 ovarian
# [40] = system: HCC-2998 colon
# [41] = system: SK-OV-3 ovarian
# [42] = system: ACHN renal
# [43] = system: A498 renal
# [44] = system: K-562 leukemia
# [45] = system: KM12 colon
# [46] = system: TK-10 renal
# [47] = system: SW-620 colon
# [48] = system: HCT-116 colon
# [49] = system: MDA-N
# [50] = system: U251 CNS
# [51] = system: SF-268 CNS
# [52] = system: UACC-62 melanoma
# [53] = system: BT-549 breast
# [54] = system: IGROV1 ovarian
# [55] = system: MALME-3M melanoma
# [56] = system: SK-MEL-2 melanoma
# [57] = system: SN12C renal
# [58] = system: RPMI-8226 leukemia
# [59] = system: HCT-15 colon
smiles,measurement,setting,value
O=C(N=S(NC(=O)c1ccccc1)C(Cl)(Cl)Cl)c1ccccc1 (stereo not drawn),TGI,[1],> 31.6 µM
same,TGI,[2],18 µM
same,TGI,[3],39.3 µM
same,TGI,[4],47.4 µM
same,TGI,[5],> 51.9 µM
same,TGI,[6],> 100 µM
same,TGI,[7],> 58.6 µM
same,TGI,[8],> 59 µM
same,TGI,[9],38.8 µM
same,TGI,[10],> 100 µM
same,TGI,[11],30.7 µM
same,TGI,[12],39.2 µM
same,TGI,[13],30.7 µM
same,TGI,[14],48.1 µM
same,TGI,[15],> 100 µM
same,TGI,[16],> 100 µM
same,TGI,[17],> 100 µM
same,TGI,[18],38 µM
same,TGI,[19],51.1 µM
same,TGI,[20],> 100 µM
same,TGI,[21],> 100 µM
same,TGI,[22],29.9 µM
same,TGI,[23],13.7 µM
same,TGI,[24],66.7 µM
same,TGI,[25],> 70.9 µM
same,TGI,[26],> 77.7 µM
same,TGI,[27],54.9 µM
same,TGI,[28],83.8 µM
same,TGI,[29],12.1 µM
same,TGI,[30],29.4 µM
same,TGI,[31],30 µM
same,TGI,[32],67.5 µM
same,TGI,[33],> 73.4 µM
same,TGI,[34],76.5 µM
same,TGI,[35],36.3 µM
same,TGI,[36],20.5 µM
same,TGI,[37],54.9 µM
same,TGI,[38],99.5 µM
same,TGI,[39],50.7 µM
same,TGI,[40],> 57.3 µM
same,TGI,[41],> 31.6 µM
same,TGI,[42],47.5 µM
same,TGI,[43],76.2 µM
same,TGI,[44],> 84 µM
same,TGI,[45],> 100 µM
same,TGI,[46],> 100 µM
same,TGI,[47],15.9 µM
same,TGI,[48],28.8 µM
same,TGI,[49],> 100 µM
same,TGI,[50],> 90.7 µM
same,TGI,[51],> 100 µM
same,TGI,[52],> 100 µM
same,TGI,[53],32.4 µM
same,TGI,[54],> 49 µM
same,TGI,[55],37.9 µM
same,TGI,[56],70.1 µM
same,TGI,[57],56.2 µM
same,TGI,[58],> 100 µM
same,TGI,[59],27 µM
COc1nc2c(c(=O)n1C)N(C(C)=O)C1C(N2)OCC(OC(C)=O)C1OC(C)=O (stereo not drawn),TGI,[1],> 10 µM
same,TGI,[2],> 10 µM
same,TGI,[3],> 10 µM
same,TGI,[4],> 10 µM
same,TGI,[5],> 10 µM
same,TGI,[6],> 10 µM
same,TGI,[7],> 10 µM
same,TGI,[8],> 10 µM
same,TGI,[9],> 10 µM
same,TGI,[10],> 10 µM
same,TGI,[11],> 10 µM
same,TGI,[12],> 10 µM
same,TGI,[13],> 10 µM
same,TGI,[14],> 10 µM
same,TGI,[15],> 10 µM
same,TGI,[16],> 10 µM
same,TGI,[17],> 10 µM
same,TGI,[18],> 10 µM
same,TGI,[19],> 10 µM
same,TGI,[20],> 10 µM
same,TGI,[21],> 10 µM
same,TGI,[22],> 10 µM
same,TGI,[23],> 10 µM
same,TGI,[24],> 10 µM
same,TGI,[25],> 10 µM
same,TGI,[26],> 10 µM
same,TGI,[27],> 10 µM
same,TGI,[28],> 10 µM
same,TGI,[29],> 10 µM
same,TGI,[30],> 10 µM
same,TGI,[31],> 10 µM
same,TGI,[32],> 10 µM
same,TGI,[33],> 10 µM
same,TGI,[34],> 10 µM
same,TGI,[35],> 10 µM
same,TGI,[36],> 10 µM
same,TGI,[37],> 10 µM
same,TGI,[38],> 10 µM
same,TGI,[39],> 10 µM
same,TGI,[40],> 10 µM
same,TGI,[41],> 10 µM
same,TGI,[42],> 10 µM
same,TGI,[43],> 10 µM
same,TGI,[44],> 10 µM
same,TGI,[45],> 10 µM
same,TGI,[46],> 10 µM
same,TGI,[47],> 10 µM
same,TGI,[48],> 10 µM
same,TGI,[49],> 10 µM
same,TGI,[50],> 10 µM
same,TGI,[51],> 10 µM
same,TGI,[52],> 10 µM
same,TGI,[53],> 10 µM
same,TGI,[54],> 10 µM
same,TGI,[55],> 10 µM
same,TGI,[56],> 10 µM
same,TGI,[57],> 10 µM
same,TGI,[58],> 10 µM
same,TGI,[59],> 10 µM
